ChEMBL document CHEMBL2385056, “Imidazopyrazine Derivatives As Inhibitors of mTOR” (ACS Med Chem Lett, 2013)

Assays:
mTORC1 = mTORC1 (Homo sapiens, UniProt P42345); test: Inhibition of mTORC1 in human PC3 cells assessed as reduction of phosphorylated 4E-BP1Thr37/46 level after 90 mins by HTRF assay; format: cell-based, PC-3
[1] = Inhibition of mTORC2 in human PC3 cells assessed as reduction of phosphorylated AKT Ser473 level after 90 mins by HTRF assay; format: cell-based; settings: PC-3, 1.5 h

| IC50 (mTORC1) [nM] | IC50 [1] [nM] | Structure (SMILES) |
| --- | --- | --- |
| > 10000 | > 10000 | Nc1nc([C@@H]2C[C@H]3CC[C@@H](C2)N3C(=O)c2nnc[nH]2)cn2c(-c3ccc(-c4ncc[nH]4)nc3)cnc12 |
| 1000 | 1000 | Cn1ccc(-c2ccc(-c3cnc4c(N)nc([C@@H]5C[C@H]6CC[C@@H](C5)N6C(=O)c5nnc[nH]5)cn34)cn2)n1 |
| 100 | 1 | Nc1nc([C@@H]2C[C@H]3CC[C@@H](C2)N3C(=O)c2nnc[nH]2)cn2c(-c3ccc(-c4ccccc4)nc3)cnc12 |

Further lines, the molecule ahead of its results:

| Structure (SMILES) | IC50 (mTORC1) [nM] | IC50 [1] [nM] |
| --- | --- | --- |
| Nc1nc([C@@H]2C[C@H]3CC[C@@H](C2)N3C(=O)c2nnc[nH]2)cn2c(-c3cnn(-c4ccccc4)c3)cnc12 | 1860 | 1140 |
| Nc1nc([C@@H]2C[C@H]3CC[C@@H](C2)N3C(=O)CO)cn2c(-c3ccc(-c4ccccc4)nc3)cnc12 | 100 | 100 |
